In brackets after ≈: the same amount, converted by molar mass. Like-named read-outs stand apart in the source and are kept apart here.
Key:
[1] = test system: Streptococcus faecium (Mb 2820); experiment: Agar diffusion disc assay, Str 2820; format: cell-based; conditions: Enterococcus faecium, 18 h; @ 20 g/disc; read-out: Inhibition zone diameter, Str 2820
Protocol: (§1) Cultures employed in evaluating antimicrobial activity included plant pathogens, human and animal opportunistic pathogens and selected laboratory strains having specific-antibiotic sensitivities or chromosomal or R-plasmid-mediated resistances. […] The agar diffusion MIC's were determined using the method described by Barry in Anitbiotics in Laboratory Medicine, 2nd Ed., Ed. V. Lorian, pp. 1-63, William & Wilkins, Baltimore, 1986. Each test compound was dissolved in methanol to a concentration of 1 mg/ml. Serial dilutions of these compounds were also made to determine an agar diffusion MIC. 20 μl of each dilution was pipetted on to 6 mm paper discs, air dried and placed onto the surface of an agar plate seeded with the appropriate bacteria (~10^6 cfu). Seeded agar plates were incubated overnight (~18 hours) at 25° C. Zone sizes were measured to the nearest mm. Each compound was tested in triplicate and the results shown represent the mean.

CCK-A (rat pancreas) [2] = molecular target: T1, CCK-A (rat pancreas) (Rattus norvegicus, UniProt P30551); experiment: [125I]BHCCK-8 radioligand binding, rat pancreatic preparation; conditions: read-out: CCK binding inhibition - IC50, [125I]BHCCK
T1 construct: from tissue; host or cells: rat pancreas
T1 sequence (P30551 1-444): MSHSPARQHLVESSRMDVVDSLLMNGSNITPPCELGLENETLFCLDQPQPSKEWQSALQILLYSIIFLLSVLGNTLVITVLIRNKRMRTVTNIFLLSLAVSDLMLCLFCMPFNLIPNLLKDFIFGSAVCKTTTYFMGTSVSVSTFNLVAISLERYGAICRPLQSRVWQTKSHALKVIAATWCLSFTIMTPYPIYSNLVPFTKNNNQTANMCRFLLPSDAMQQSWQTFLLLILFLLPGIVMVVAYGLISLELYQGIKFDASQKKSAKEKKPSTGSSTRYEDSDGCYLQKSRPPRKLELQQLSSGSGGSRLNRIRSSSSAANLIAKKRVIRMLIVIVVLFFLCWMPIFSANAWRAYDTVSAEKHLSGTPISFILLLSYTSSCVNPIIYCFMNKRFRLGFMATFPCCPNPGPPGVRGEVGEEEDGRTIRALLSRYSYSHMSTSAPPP
Protocol: (§2) The resulting supernatant was re-spun at 20,000×g for 20 minutes. […] Incubations were for 40 minutes at 4° C. and were terminated by filtration and washing with ice cold 100 mM saline. […] Incubations were for 30 minutes at room temperature and were terminated by filtration over GF/C filters and washing with 100 mM NaCl.

[3] = test system: Salmonella gallinarum (Mb 1287); experiment: Agar diffusion disc assay, Salm 1287; format: cell-based; conditions: Salmonella enterica, GALLINARUM, 18 h; @ 20 g/disc; read-out: Inhibition zone diameter, Salm 1287
Protocol: as §1

[4] = test system: En terobacter aergenes (Mb 835); experiment: Agar diffusion disc assay, Ent 835; format: cell-based; conditions: 18 h; @ 20 g/disc; read-out: Inhibition zone diameter, Ent 835
Protocol: as §1

[5] = molecular target: T2, CCK-B (guinea pig cortex) (Cavia porcellus, UniProt H0VZC5); experiment: [3H]L-365,260 CCK-B selective antagonist ligand binding, brain membranes; conditions: for percentage in parentheses beside >3.0, [3H]L-365,260 (inhibition at top concentration, not defined): beside IC50 >3.0; for IC50: read-out: CCK binding inhibition - IC50, [3H]L-365,260
T2 construct: guinea pig cortical preparations; from tissue; host or cells: guinea pig brain cortex membranes
T2 sequence (H0VZC5 1-426): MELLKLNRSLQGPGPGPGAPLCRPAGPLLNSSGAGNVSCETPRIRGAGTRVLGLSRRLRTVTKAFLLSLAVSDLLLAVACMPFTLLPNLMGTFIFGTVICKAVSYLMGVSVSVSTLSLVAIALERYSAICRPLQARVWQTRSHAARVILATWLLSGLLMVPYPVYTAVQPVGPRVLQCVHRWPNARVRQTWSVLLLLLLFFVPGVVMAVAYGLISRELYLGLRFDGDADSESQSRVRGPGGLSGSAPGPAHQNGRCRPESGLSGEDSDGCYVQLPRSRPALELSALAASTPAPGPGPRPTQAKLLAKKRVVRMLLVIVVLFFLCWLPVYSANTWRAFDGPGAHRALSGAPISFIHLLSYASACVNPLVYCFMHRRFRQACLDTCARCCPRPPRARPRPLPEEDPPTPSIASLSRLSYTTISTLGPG
Protocol: as §2

Bacillus sp. (Mb 633) = experiment: Agar diffusion disc assay, Baci 633; format: cell-based; conditions: Bacillus, 18 h, @ 20 g/disc; read-out: Inhibition zone diameter, Baci 633
Protocol: as §1

[6] = test system: Staphylococcus aureus (Mb 2983); experiment: Agar diffusion disc assay, Sta 2983; format: cell-based; conditions: Staphylococcus aureus, 18 h; @ 20 g/disc; read-out: Inhibition zone diameter, Sta 2983
Protocol: as §1

[7] = molecular target: T2, CCK-B (guinea pig cortex); experiment: [125I]BHCCK-8 radioligand binding, guinea pig cortical preparation; conditions: read-out: CCK binding inhibition - IC50, [125I]BHCCK
Protocol: as §2

[8] = test system: Corynebacterium pseudodiphtheriticum (Mb 261, ATCC 9742); experiment: Agar diffusion disc assay, Cory 261; format: cell-based; conditions: Corynebacterium pseudodiphtheriticum, ATCC9742, 18 h; @ 20 g/disc; read-out: Inhibition zone diameter, Cory 261
Protocol: as §1

[9] = test system: Escherichia coli (Mb 1418); experiment: Agar diffusion disc assay, Coli 1418; format: cell-based; conditions: Escherichia coli, 18 h; @ 20 g/disc; read-out: Inhibition zone diameter, Coli 1418
Protocol: as §1

[10] = test system: Streptococcus agalactiae (Mb 2875); experiment: Agar diffusion disc assay, Str 2875; format: cell-based; conditions: Streptococcus agalactiae, 18 h; @ 20 g/disc; read-out: Inhibition zone diameter, Str 2875
Protocol: as §1

[11] = test system: Staphylococcus aureus (Mb 108, ATCC 6538P); experiment: Agar diffusion disc assay, Sta 108; format: cell-based; conditions: Staphylococcus aureus, ATCC6538P, 18 h; @ 20 g/disc; read-out: Inhibition zone diameter, Sta 108
Protocol: as §1

[12] = test system: Micrococcus luteus (Mb 1101, ATCC 9341); experiment: Agar diffusion disc assay, Micr 1101; format: cell-based; conditions: Micrococcus luteus; for MIC: read-out: Agar Diffusion MIC versus Micrococcus luteus; for zone of inhibition at 5 µg/disc: 5.00 μg/disc; for zone of inhibition at 10 µg/disc: 10.0 μg/disc
Protocol: as §1

CCK-A (rat pancreas) [13] = molecular target: T1, CCK-A (rat pancreas); experiment: [3H]L-364,718 CCK-A selective antagonist ligand binding, pancreas; conditions: read-out: CCK binding inhibition - IC50, [3H]L-364,718
Protocol: as §2

[14] = test system: Pseudomonas stutzeri (Mb 1231, ATCC 11607); experiment: Agar diffusion disc assay, Pseu 1231; format: cell-based; conditions: Stutzerimonas stutzeri, ATCC11607, 18 h; @ 20 g/disc; read-out: Inhibition zone diameter, Pseu 1231
Protocol: as §1

[15] = test system: Bacillus subtilis (Mb 964, ATCC 6633); experiment: Agar diffusion disc assay, Subt 964; format: cell-based; conditions: Bacillus subtilis, ATCC6633, 18 h; @ 20 g/disc; read-out: Inhibition zone diameter, Subt 964
Protocol: as §1

[16] = ATCC9341, 18 h, @ 20 g/disc, read-out: Inhibition zone diameter, Micr 1101
[17] = ATCC9341, 25° C., ~18 hours, read-out: Mean of triplicate zone size versus Micrococcus luteus
[18] = ATCC9341, 20.0 μg/disc, 25° C., ~18 hours, read-out: Mean of triplicate zone size versus Micrococcus luteus

SMILES | zone of inhibition at 20 µg/disc [1] | IC50 (CCK-A (rat pancreas) [2]) | zone of inhibition at 20 µg/disc [3] | zone of inhibition at 20 µg/disc [4] | A.R. = agonist ratio = IC50([3H]L365,260)/IC50([125I]CCK) [5] | percentage in parentheses beside >3.0, [3H]L-365,260 (inhibition at top concentration, not defined) [5] | IC50 [5] | zone of inhibition at 20 µg/disc (Bacillus sp. (Mb 633)) | zone of inhibition at 20 µg/disc [6] | IC50 [7] | zone of inhibition at 20 µg/disc [8] | zone of inhibition at 20 µg/disc [9] | zone of inhibition at 20 µg/disc [10] | zone of inhibition at 20 µg/disc [11] | zone of inhibition at 20 µg/disc [12, 16] | MIC ([12]; ATCC9341, 18 h) | zone of inhibition at 5 µg/disc [12, 17] | zone of inhibition at 10 µg/disc [12, 17] | zone of inhibition at 20 µg/disc [12, 18] | IC50 (CCK-A (rat pancreas) [13]) | further results
CC(=O)OC1=Cc2nc(co2)C(=O)N2CCC=C2C(=O)O[C@H](C(C)C)[C@H](C)/C=C/C(=O)NC/C=C/C(C)=C/[C@@H](OC(C)=O)C1 [Example 1] | 0 mm | > 3 µM | 0 mm | 0 mm | > 25 | 13% | > 3 µM | 0 mm | 0 mm | 0.8 µM | 14 mm | 0 mm | 0 mm | 9 mm | 17 mm | 1.92 µM (≈ 1.17 µg/mL) | 12 mm | 15 mm | 16 mm | > 3 µM | zone of inhibition at 20 µg/disc [14]: 0 mm; zone of inhibition at 20 µg/disc [15]: 0 mm
CC(=O)O[C@@H]1/C=C(C)/C=C/CNC(=O)/C=C/[C@@H](C)[C@@H](C(C)C)OC(=O)C2=CCCN2C(=O)c2coc(n2)CC(=O)C1 [Example 2] | 0 mm | > 3 µM | 0 mm | 0 mm | > 25 | 21% | > 3 µM | 0 mm | 0 mm | 0.7 µM | 13 mm | 0 mm | 0 mm | 11 mm | 21 mm | 3.24 µM (≈ 1.84 µg/mL) | 14 mm | 18 mm | 21 mm | > 3 µM | zone of inhibition at 2.5 µg/disc ([12]; ATCC9341, 2.50 μg/disc, 25° C., ~18 hours, read-out: Mean of triplicate zone size versus Micrococcus luteus): 7 mm; zone of inhibition at 20 µg/disc [14]: 0 mm; zone of inhibition at 20 µg/disc [15]: 0 mm

Reference: patent US5242938A, “Derivatives of virginiamycin M1” (Merck & Co., Inc., priority 1992, dated 1993)
